# Test results: patent US10280174B2, “Salt of fused pyrimidine compound and crystal thereof” (TAIHO PHARMACEUTICAL CO., LTD., priority 2015, dated 2019)
# Experiments:
# [1] = Moisture absorption/desorption test; type: physicochemical; conditions: for characteristic of channel hydrate: absorb/desorb moisture depending on humidity; for weight change at a maximum: humidified at a relative humidity of from 5 to 95%; for Weight change ratio, Adsorption / Weight change ratio, Desorption: 25° C.
# Protocol: Moisture absorption/desorption test was carried out with respect to Compound A, monofumarate of Compound A, hemifumarate of Compound A, hemitartrate of Compound A and monophosphate of Compound A, to research the presence or absence of the characteristic of channel hydrate.
# In the moisture absorption/desorption test, measurements were carried out according to the following conditions.
# A dedicated quartz holder was filled with about from 5 to 10 mg of sample, and a weight of the sample at each humidity was measured and recorded in a continuous manner under the following conditions. Handling of the devices including data processing was based on the method and the process indicated in each device.
# Device: VTI SA+ (manufactured by TA Instruments Inc.)
# Drying temperature: 60° C.
# Temperature rising speed: 1° C./min.
# Equilibrium in drying: It is confirmed that no reduction of 0.01 wt % occurs in 5 minutes, in a range not exceeding 300 minutes.
# Temperature for measurement: 25° C.
# Equilibrium in humidification: It is confirmed that no increase of 0.01 wt % occurs in 5 minutes, in a range not exceeding 120 minutes.
# Relative humidity program: Raised by 5% RH from 5% RH to 95% RH, and lowered by 5% RH from 95% RH to 5% RH.
# [2] = in vivo; conditions: Balb/cA, mouse, po, 50 mg/kg
# Protocol: (§4) These administration solutions were orally administered to mice (Balb/cA) which had been bred under a feeding condition, at a dose of 10 mL per 1 kg body weight, with a sonde for oral administration. After the administration, the mice were returned to a cage for mice and conditions were checked. Inside the cage was provided with a condition where water and food were accessible ad libitum. After 0.25, 0.5, 1, 2, 4 and 6 hours from the administration, the mice were anesthetized with isoflurane, and 60 μL of blood was collected from orbital sinus with a capillary blood collection tube.
# (§5) The collected blood was ice cooled, and blood plasma was separated by a centrifugal operation. The mice after the blood collection was returned to an animal breeding cage, and conditions after recovery from the anesthesia were checked. When the last blood collection was finished, the mice were euthanized by cervical dislocation, after a level check of isoflurane anesthesia.
# (§6) AUC0-6 hr, Cmax and Tmax were calculated by linear-log trapezoid method with Phoenix WinNonlin (v6.3.0) which is a software manufactured by Pharsight Corporation, from a concentration of Compound A in each blood plasma measured by MRM method with LC-MS/MS.
# [3] = Solid stability test (acceleration test), 40° C./75% RH; type: physicochemical
# Protocol: Solid stability was measured under the following conditions, with respect to monofumarate of Compound A, hemifumarate of Compound A, hemitartrate of Compound A and monophosphate of Compound A which were obtained in the Examples and the Reference Examples, when they were stored for 2 weeks or 4 weeks at 40° C./75% RH (sealed condition and opened condition).
# Storage condition: 40° C./75% RH (Sealed and Opened) (Opened refers to a condition where a glass container has the lid removed, and is covered with a KimWipe).
# Points of measurement: 2 weeks and 4 weeks
# (§1) Storage amount: About 30 mg
# (§2) Storage container: Brown glass container
# (§3) Method of preparing sample solution: Sample was dissolved in 50% acetonitrile such that a concentration of the sample would be 0.4 mg/mL.
# Mass of analogous substance in the sample solution was measured by HPLC analysis. Handling of the devices including data processing was based on the method and the process indicated in each device. (Device: Shimadzu Corporation SIL-HTc/LC-20AB)
# Column: InertSustein C18, 4.6×150 mm, 3 μm, manufactured by GL Sciences Inc.
# MS detection: ESI positive
# Column temperature: 40° C.
# Column flow rate: 1.0 mL/min
# Mobile phase: A; 10 mmol/L phosphate buffer (pH 6.0): Acetonitrile mixed solution (17:3), B; Acetonitrile
# Amount of injection: 5 μL
# In the Table, A, B and C refer to percentages of the total mass of analogous substance of less than 0.1%, 0.1% or more and less than 0.5%, and 0.5% or more, respectively. Incidentally, those marked with * were measured at 2 weeks' time and the others were measured at 4 weeks' time.
# [4] = Solid stability test (severe test), 60° C.; type: physicochemical; conditions: 60° C. (Sealed)
# Protocol: Solid stability was measured under the following conditions, with respect to monofumarate of Compound A, hemitartrate of Compound A and monophosphate of Compound A which were obtained in the Examples and the Reference Examples, when they were stored for 2 weeks or 4 weeks at 60° C.
# Storage condition: 60° C. (Sealed)
# Point of measurement: 2 weeks and 4 weeks
# as §1, §2, §3
# In the Table, A and B refer to percentages of the total mass of analogous substance of less than 0.1%, and 0.1% or more and less than 0.5%, respectively. Incidentally, the value marked with * was measured at 2 weeks and the others were measured at 4 weeks.
# [5] = system: mouse collagen-induced arthritis model; test: Mice collagen-induced arthritis model; type: in vivo, DBA/1 mice; conditions: 3 mg/kg, positive control, 17 days; FIG. 11
# Protocol: The test was carried out in accordance with the method described in Non-Patent Literature (Brand D D, et al., Nat Protoc. 2007; 2, 1269-1275, Xu D. et al., JPET, 2012 April; 341 (1):90-103). Seven-week-old male/DBA/1 mice (CHARLES RIVER LABORATORIES JAPAN, INC.) were intracutaneously injected in the dorsum with 100 μL/body of an equal amount-mixed solution (emulsion) of 4 mg/mL of bovine type 2 collagen solution (Collagen Research Center) and Complete Freund's Adjuvant (DIFCO Inc.) (initial immunization). After 21 days therefrom, the mice were intracutaneously injected in the chine with 100 μL/body of an equal amount-mixed solution (emulsion) of 4 mg/mL of bovine type 2 collagen solution (Collagen Research Center) and Complete Freund's Adjuvant (DIFCO) to provide an additional immunization. The oral administration of 1 time per day was continued for 17 days setting the administration initiation day (day 0) as the eighth day from the additional immunization. Symptoms of arthritis in day 0, day 3, day 7, day 10, day 14 and day 17 were scored macroscopically (0: No change, 1: Swelling of a finger, 2: Swelling of two fingers or more, 3: Swelling of instep, 4: Swelling of all fingers extending wrist/ankle), and a total in four limbs was obtained as a point of individual body (maximum 16 points).
# [6] = Blood concentration measurement test after oral administration; conditions: mice
# Protocol: as §4, §5, §6
# [7] = 50 mg/kg in terms of Compound A, 0.5% HPMC suspension, plasma Compound A
SMILES,characteristic of channel hydrate [1],weight change at a maximum [1],"Weight change ratio, Adsorption ([1]; relative humidity 5%) [%]","Weight change ratio, Desorption ([1]; relative humidity 5%) [%]","Weight change ratio, Adsorption ([1]; relative humidity 20%) [%]","Weight change ratio, Desorption ([1]; relative humidity 20%) [%]","Weight change ratio, Adsorption ([1]; relative humidity 40%) [%]","Weight change ratio, Desorption ([1]; relative humidity 40%) [%]","Weight change ratio, Adsorption ([1]; relative humidity 60%) [%]","Weight change ratio, Desorption ([1]; relative humidity 60%) [%]","Weight change ratio, Adsorption ([1]; relative humidity 80%) [%]","Weight change ratio, Desorption ([1]; relative humidity 80%) [%]","Weight change ratio, Adsorption ([1]; relative humidity 95%) [%]","Weight change ratio, Desorption ([1]; relative humidity 95%) [%]","total mass of analogous substance ([3]; Opened, 4 weeks)","total mass of analogous substance ([3]; Sealed, 4 weeks)",other results
"C=CC(=O)N1CCC[C@@H](n2nc(C(=O)Nc3nc4ccccc4o3)c3c(N)ncnc32)C1 [Compound A, (R)-1-(1-acryloylpiperidin-3-yl)-4-amino-N-(benzo[d]oxazol-2-yl)-1H-pyrazolo[3,4-d]pyrimidine-3-carboxamide]",had the characteristic of channel hydrate,about 4.4%,0.42,0.67,3.08,3.20,3.60,3.65,3.88,3.88,4.09,4.11,4.39,4.39,–,–,AUC(0-t) [2]: 5.45 µM·h; Cmax [2]: 3.98 µM; Tmax [2]: 15 min
"C=CC(=O)N1CCC[C@@H](n2nc(C(=O)Nc3nc4ccccc4o3)c3c(N)ncnc32)C1.O=P(O)(O)O [monophosphate of Compound A, (R)-1-(1-acryloylpiperidin-3-yl)-4-amino-N-(benzo[d]oxazol-2-yl)-1H-pyrazolo[3,4-d]pyrimidine-3-carboxamide.monophosphate]",–,–,0.01,5.76,0.19,8.06,0.36,9.29,0.61,10.38,1.29,12.12,17.90,17.90,–,–,"crystal form after the moisture absorption/desorption test [1]: did not maintain the original crystal form; total mass of analogous substance ([3]; Opened, 2 weeks (marked *)): C* (0.5% or more); total mass of analogous substance ([3]; Sealed, 2 weeks (marked *)): C* (0.5% or more); total mass of analogous substance ([4]; 2 weeks (marked *)): B* (0.1% or more and less than 0.5%)"
"C=CC(=O)N1CCC[C@@H](n2nc(C(=O)Nc3nc4ccccc4o3)c3c(N)ncnc32)C1.C=CC(=O)N1CCC[C@@H](n2nc(C(=O)Nc3nc4ccccc4o3)c3c(N)ncnc32)C1.O=C(O)C(O)C(O)C(=O)O [hemitartrate of Compound A, (R)-1-(1-acryloylpiperidin-3-yl)-4-amino-N-(benzo[d]oxazol-2-yl)-1H-pyrazolo[3,4-d]pyrimidine-3-carboxamide.hemi-L-(+)-tartrate]",had the characteristic of channel hydrate,about 3.3%,0.01,−0.28,1.25,1.17,1.56,1.32,1.67,1.45,1.64,1.72,3.31,3.31,B (0.1% or more and less than 0.5%),B (0.1% or more and less than 0.5%),total mass of analogous substance ([4]; 4 weeks): B (0.1% or more and less than 0.5%)
"C[C@]12C=CC(=O)C=C1CC[C@@H]1[C@@H]2[C@@H](O)C[C@@]2(C)[C@H]1CC[C@]2(O)C(=O)CO [prednisolone, reference compound]",–,–,–,–,–,–,–,–,–,–,–,–,–,–,–,–,arthritis score [5]: only in a degree of maintaining the raised arthritis score
"C=CC(=O)N1CCC[C@@H](n2nc(C(=O)Nc3nc4ccccc4o3)c3c(N)ncnc32)C1.C=CC(=O)N1CCC[C@@H](n2nc(C(=O)Nc3nc4ccccc4o3)c3c(N)ncnc32)C1.O=C(O)/C=C/C(=O)O [hemifumarate of Compound A, (R)-1-(1-acryloylpiperidin-3-yl)-4-amino-N-(benzo[d]oxazol-2-yl)-1H-pyrazolo[3,4-d]pyrimidine-3-carboxamide.hemifumarate]",–,–,0.00,0.04,0.07,0.11,0.16,0.23,0.28,0.40,0.42,0.54,0.81,0.81,A (less than 0.1%),A (less than 0.1%),"AUC0-6 hr relative to that of Compound A ([6]; 50 mg/kg): about two fold; Cmax relative to that of Compound A ([6]; 50 mg/kg): equivalent to that of Compound A; AUC0-6 hr [6, 7]: 10.32 µM·h; Cmax [6, 7]: 4.22 µM; Tmax [6, 7]: 30 min; mass change (increase) ([1]; relative humidity of 95%): less than 1%; solid stability (in words) ([3]; compared to hemitartrate or monophosphate): excellent solid stabilities"
